This note sets out measurements from patent US12371454B2, “Cyclic peptide compound having Kras inhibitory action” (priority 2019, dated 2025).

Starred links: 1 amine or outer side, 2 acyl side, 3 side chain; linkers in the order of their positions; H or OH if unused. Positions of bridges follow the written chain, without caps; N, C: chain ends. Non-standard residues stand in square brackets, D forms with d. Residues, ends and D or L forms follow the SMILES beside them. *: point of attachment. hPhe(3-Cl-4-CF3) = N[C@@H](CCc1ccc(C(F)(F)F)c(Cl)c1)C(=O)O; NMeDab(N,N-(CH2CF2CH2)) = CN[C@@H](CCN1CC(F)(F)C1)C(=O)O; hPhe(3-F,4-CF3) = N[C@@H](CCc1ccc(C(F)(F)F)c(F)c1)C(=O)O; hPhe(4-CF3) = N[C@@H](CCc1ccc(C(F)(F)F)cc1)C(=O)O; NMePhe(4-Cl) = CN[C@@H](Cc1ccc(Cl)cc1)C(=O)O; X4 = O=C([C@H](Cc1cc(F)cc(Cl)c1)N[*:1])[*:2]; NMeNle(6-CHF2) = CN[C@@H](CCCCC(F)F)C(=O)O; NMedβ3hAla = C[C@H](CC(=O)[*:2])N(C)[*:1]; hPhe(4-F) = N[C@@H](CCc1ccc(F)cc1)C(=O)O; NMeGly(cPent) = CN[C@H](C(=O)O)C1CCCC1; dαMeGly(allyl) = C=CC[C@@](C)(N)C(=O)O; NMe4Pal = CN[C@@H](Cc1ccncc1)C(=O)O; NMeCha = CN[C@@H](CC1CCCCC1)C(=O)O; NMeChg = CN[C@H](C(=O)O)C1CCCCC1; NMeF = CN[C@@H](Cc1ccccc1)C(=O)O; NMeD = CN[C@@H](CC(=O)O)C(=O)O; NMeL = CN[C@@H](CC(C)C)C(=O)O; NMeV = CN[C@H](C(=O)O)C(C)C; d(β3hA) = C[C@@H](N)CC(=O)O; Pip = O=C(O)[C@@H]1CCCCN1; NMeA = CN[C@@H](C)C(=O)O; NMeAib = CNC(C)(C)C(=O)O; Piperidide = C1CCN(*)CC1; Pyrrolidide = C1CCN(*)C1; dNMeA = CN[C@H](C)C(=O)O; Ac5c = NC1(C(=O)O)CCCC1; Aze = O=C(O)[C@@H]1CCN1; Aib = CC(C)(N)C(=O)O; Sar = CNCC(=O)O

The experiment deals with T1, Kras and SOS1 (biotin-tagged human Kras loaded with GDP, His-tagged human SOS1) (Homo sapiens, UniProt P01116, G12D).
T1 construct: made in house; host or cells: E. coli (stated for Kras only)
T1 sequence (P01116 1-188 isoform P01116-2 G12D): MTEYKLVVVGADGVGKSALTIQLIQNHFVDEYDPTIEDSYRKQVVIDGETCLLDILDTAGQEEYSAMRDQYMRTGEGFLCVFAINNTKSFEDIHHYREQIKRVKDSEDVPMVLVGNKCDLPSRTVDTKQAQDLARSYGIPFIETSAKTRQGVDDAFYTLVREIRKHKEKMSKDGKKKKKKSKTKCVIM
Description: Protein-protein interaction inhibition between Kras and SOS1 (KrasGl2D-SOS PPI) using AlphaScreen. It is filed as binding. The conditions noted are these: AlphaScreen; biotin-tagged human Kras loaded with GDP, His-tagged human SOS1; read-out: KRAS G12D-SOS PPI IC50. The essentials:
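Donor beads (nickel) hold His-SOS1; acceptor beads (streptavidin) hold biotin-Kras bound to GDP. Signal measured at 520-620 nm following 680 nm excitation.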
On the technique in general: Bead proximity is the source of the signal in Alpha formats.
As a reminder, the IC50 is the midpoint of a concentration-inhibition curve. As for `CC[C@H](C)[C@@H]1NC(=O)[C@H](CC(C)C)N(C)C(=O)C[C@@H](C)NC(=O)[C@H](C(C)C)N(C)C(=O)C(C)(C)NC(=O)[C@@H]2CCCN2C(=O)[C@H](CCc2ccc(C(F)(F)F)c(Cl)c2)NC(=O)CN(C)C(=O)[C@H](CC2CCCCC2)N(C)C(=O)CN(C)C(=O)CN(C)C1=O` [Compound 641] (cyclo([Aib][NMeV][d(β3hA)][NMeL]I[Sar][Sar][NMeCha][Sar][hPhe(3-Cl-4-CF3)]P)), the IC50 was found to be 18 nM. Turning to `CC[C@H](C)[C@@H]1NC(=O)[C@H](C(C)C)N(C)C(=O)C[C@@H](C)NC(=O)[C@H](CC(C)C)N(C)C(=O)C2(CCCC2)NC(=O)[C@H](CC(C)C)N(C)C(=O)[C@H](CCc2ccc(C(F)(F)F)cc2)NC(=O)CN(C)C(=O)[C@H](Cc2ccc(Cl)cc2)N(C)C(=O)[C@@H]2CCN2C(=O)CN(C)C1=O` [Compound 645] (cyclo([Ac5c][NMeL][d(β3hA)][NMeV]I[Sar][Aze][NMePhe(4-Cl)][Sar][hPhe(4-CF3)][NMeL])), the IC50 came to 58 nM. The value for `CC[C@H](C)[C@@H]1NC(=O)[C@H](C)N(C)C(=O)C[C@@H](C(=O)N2CCCC2)NC(=O)[C@H](CC(C)C)N(C)C(=O)[C@H](Cc2ccccc2)N(C)C(=O)[C@H](CC(C)C)NC(=O)[C@H](CCc2ccc(F)cc2)NC(=O)CN(C)C(=O)[C@H](Cc2ccc(Cl)cc2)N(C)C(=O)CN(C)C(=O)CN(C)C1=O` [Compound 646] ([NMeA]I[Sar][Sar][NMePhe(4-Cl)][Sar][hPhe(4-F)]L[NMeF][NMeL]D-Pyrrolidide; lactam N-11) was 120 nM; that for `CC[C@H](C)[C@@H]1NC(=O)[C@@H]2CCCCN2C(=O)C[C@@H](C)N(C)C(=O)[C@H](CC(C)C)NC(=O)C(C)(C)N(C)C(=O)[C@H](CC(C)C)NC(=O)[C@H](CCc2ccc(C(F)(F)F)c(F)c2)NC(=O)CN(C)C(=O)[C@H](CC2CCCCC2)N(C)C(=O)CN(C)C(=O)CN(C)C1=O` [Compound 649] (cyclo(I[Sar][Sar][NMeCha][Sar][hPhe(3-F,4-CF3)]L[NMeAib]L[NMedβ3hAla][Pip])) was 360 nM. `CC[C@H](C)[C@@H]1NC(=O)[C@H](CC(C)C)N(C)C(=O)C[C@@H](C(=O)N2CCCCC2)N(C)C(=O)[C@H](CCCCC(F)F)N(C)C(=O)C2(CCCC2)NC(=O)[C@@H]2CCCN2C(=O)[C@H](CCc2ccc(C(F)(F)F)c(Cl)c2)NC(=O)CN(C)C(=O)[C@H](CC2CCCCC2)N(C)C(=O)CN(C)C(=O)CN(C)C1=O` [Compound 653] ([NMeL]I[Sar][Sar][NMeCha][Sar][hPhe(3-Cl-4-CF3)]P[Ac5c][NMeNle(6-CHF2)][NMeD]-Piperidide; lactam N-11): the IC50 is 44 nM. On to `CC[C@H](C)[C@@H]1NC(=O)[C@H](C)N(C)C(=O)C[C@@H](C)NC(=O)[C@H](CC(C)C)N(C)C(=O)[C@H](Cc2ccccc2)N(C)C(=O)[C@@H]2CCN2C(=O)[C@H](CCc2ccc(C(F)(F)F)cc2)NC(=O)CN(C)C(=O)[C@H](Cc2ccc(Cl)cc2)N(C)C(=O)CN(C)C(=O)CN(C)C1=O` [Compound 654] (cyclo([Aze][NMeF][NMeL][d(β3hA)][NMeA]I[Sar][Sar][NMePhe(4-Cl)][Sar][hPhe(4-CF3)])), for which the IC50 worked out at 110 nM.

As to `CC[C@H](C)[C@@H]1NC(=O)[C@H](C)N(C)C(=O)C[C@@H](C(=O)N2CCCCC2)N(C)C(=O)[C@H](C(C)C)N(C)C(=O)[C@H](COC)NC(=O)[C@H](CCN2CC(F)(F)C2)N(C)C(=O)[C@H](CCc2ccc(C(F)(F)F)c(Cl)c2)NC(=O)CN(C)C(=O)[C@H](CC2CCCCC2)N(C)C(=O)CN(C)C(=O)CN(C)C1=O` [Compound 655] ([NMeA]I[Sar][Sar][NMeCha][Sar][hPhe(3-Cl-4-CF3)][NMeDab(N,N-(CH2CF2CH2))]S(Me)[NMeV][NMeD]-Piperidide; lactam N-11), the IC50 turned out to be 4.9 nM.

Take `CC[C@H](C)[C@@H]1NC(=O)[C@H](CC(C)C)N(C)C(=O)C[C@@H](C(=O)N2CCCCC2)N(C)C(=O)[C@H](C2CCCCC2)N(C)C(=O)C2(CCCC2)NC(=O)[C@H](Cc2ccncc2)N(C)C(=O)[C@H](CCc2ccc(C(F)(F)F)c(Cl)c2)NC(=O)CN(C)C(=O)[C@H](CC2CCCCC2)N(C)C(=O)[C@@H]2CCN2C(=O)[C@H](C)N(C)C1=O` [Compound 656] ([NMeL]I[NMeA][Aze][NMeCha][Sar][hPhe(3-Cl-4-CF3)][NMe4Pal][Ac5c][NMeChg][NMeD]-Piperidide; lactam N-11): the IC50 was determined as 17 nM.

On to `CC[C@H](C)[C@@H]1NC(=O)[C@H](C)N(C)C(=O)C[C@@H](C(=O)N2CCCC2)NC(=O)[C@H](CC(C)C)N(C)C(=O)[C@H](Cc2ccccc2)N(C)C(=O)[C@H](CC(C)C)NC(=O)[C@H](Cc2cc(F)cc(Cl)c2)NC(=O)CN(C)C(=O)[C@H](Cc2ccc(Cl)cc2)N(C)C(=O)CN(C)C(=O)CN(C)C1=O` [Compound 657] ([NMeA]I[Sar][Sar][NMePhe(4-Cl)][Sar][X4]L[NMeF][NMeL]D-Pyrrolidide; lactam N-11), for which the IC50 was determined as 310 nM. The result for `CC[C@H](C)[C@@H]1NC(=O)[C@H](C)N(C)C(=O)C[C@@H](C)NC(=O)[C@H](CC(C)C)N(C)C(=O)C(C)(C)NC(=O)[C@@H]2CCCN2C(=O)[C@H](CCc2ccc(C(F)(F)F)cc2)NC(=O)CN(C)C(=O)[C@H](Cc2ccc(Cl)cc2)N(C)C(=O)CN(C)C(=O)CN(C)C1=O` [Compound 664] (cyclo([Aib][NMeL][d(β3hA)][NMeA]I[Sar][Sar][NMePhe(4-Cl)][Sar][hPhe(4-CF3)]P)) reads 25 nM. As to `C=CC[C@@]1(C)NC(=O)[C@@H]2CCCN2C(=O)[C@H](CCc2ccc(C(F)(F)F)c(Cl)c2)NC(=O)CN(C)C(=O)[C@H](CC2CCCCC2)N(C)C(=O)CN(C)C(=O)CN(C)C(=O)[C@H]([C@@H](C)CC)NC(=O)[C@H](CC(C)C)N(C)C(=O)C[C@@H](C)NC(=O)[C@H](C(C)C)N(C)C1=O` [Compound 665] (cyclo(I[Sar][Sar][NMeCha][Sar][hPhe(3-Cl-4-CF3)]P[dαMeGly(allyl)][NMeV][d(β3hA)][NMeL])), the IC50 is 37 nM.

For `CC[C@H](C)[C@@H]1NC(=O)[C@H](C)N(C)C(=O)C[C@@H](C)NC(=O)[C@H](C(C)C)N(C)C(=O)C2(CCCC2)NC(=O)[C@@H]2CCCN2C(=O)[C@H](CCc2ccc(C(F)(F)F)c(Cl)c2)NC(=O)[C@H]2CCCN2C(=O)[C@H](CC2CCCCC2)N(C)C(=O)[C@@H]2CCCN2C(=O)CN(C)C1=O` [Compound 666] (cyclo([Ac5c][NMeV][d(β3hA)][NMeA]I[Sar]P[NMeCha][dP][hPhe(3-Cl-4-CF3)]P)), the 50% inhibitory concentration (IC50) amounted to 25 nM. With `CC[C@H](C)[C@@H]1NC(=O)[C@@H]2CCCCN2C(=O)C[C@@H](C(=O)N2CCCCC2)N(C)C(=O)[C@H](C(C)C)N(C)C(=O)C2(CCCC2)NC(=O)[C@@H]2CCCN2C(=O)[C@H](CCc2ccc(C(F)(F)F)c(F)c2)NC(=O)CN(C)C(=O)[C@H](CC2CCCCC2)N(C)C(=O)CN(C)C(=O)CN(C)C1=O` [Compound 670] ([Pip]I[Sar][Sar][NMeCha][Sar][hPhe(3-F,4-CF3)]P[Ac5c][NMeV][NMeD]-Piperidide; lactam N-11), the IC50 was 5.1 nM.

As to `CC[C@H](C)[C@@H]1NC(=O)[C@H](C)N(C)C(=O)C[C@@H](C)NC(=O)[C@H](C2CCCC2)N(C)C(=O)C2(CCCC2)NC(=O)[C@@H]2CCCN2C(=O)[C@H](CCc2ccc(C(F)(F)F)c(Cl)c2)NC(=O)[C@@H](C)N(C)C(=O)[C@H](Cc2ccccc2)N(C)C(=O)[C@@H]2CCN2C(=O)[C@H](C)N(C)C1=O` [Compound 671] (cyclo([Ac5c][NMeGly(cPent)][d(β3hA)][NMeA]I[NMeA][Aze][NMeF][dNMeA][hPhe(3-Cl-4-CF3)]P)), the IC50 was found to be 52 nM.
